Experimental data reported in US6495591B1, “Fungal efflux pump inhibitors” (Essential Therapeutics, Inc., priority 1997, dated 2002).

Legend:
Format in all cases: cell-based
[1] = system: YEM 15 C. albicans, CDR1CDR2 up; assay: microbe, parasite or virus in culture; conditions: YEM 15, 24 hrs, 80% inhibition; for MIC of compound in the presence of fluconazole (+): 1/8 × MIC of fluconazole
[2] = system: YEM 24 C. albicans ΔCDR1, ΔCDR2; assay: microbe, parasite or virus in culture; conditions: YEM 24, 24 hrs, 80% inhibition; for MIC of compound in the presence of fluconazole (+): 1/8 × MIC of fluconazole
[3] = system: YEM 13 C. albicans BEN up; assay: microbe, parasite or virus in culture; conditions: YEM 13, 24 hrs, 80% inhibition; for MIC of compound in the presence of fluconazole (+): 1/8 × MIC of fluconazole
[4] = system: YEM 17 C. glabrata, CgCDR up; conditions: 24 hrs, 80% inhibition; for MIC of compound in the presence of fluconazole (+): 1/8 × MIC of fluconazole
Aspergillus fumigatus = assay: FEPI MICs in combination with 1/4 the azole's MIC (Table 12); design: FEPI MIC (alone): unit not given here; conditions: for FEPI MIC with fluconazole, 60% Inh / FEPI MIC with fluconazole, 80% Inh: fluconazole 32 μg/ml (1/4 MIC); for FEPI MIC with fluconazole, 60% Inh / FEPI MIC with itraconazole, 60% Inh / FEPI MIC with ketoconazole, 60% Inh: 60% inhibition; for FEPI MIC with fluconazole, 80% Inh / FEPI MIC with itraconazole, 80% Inh / FEPI MIC with ketoconazole, 80% Inh / FEPI MIC (alone): 80% inhibition; for FEPI MIC with itraconazole, 60% Inh / FEPI MIC with itraconazole, 80% Inh: itraconazole 0.063 μg/ml (1/4 MIC); for FEPI MIC with ketoconazole, 60% Inh / FEPI MIC with ketoconazole, 80% Inh: ketoconazole 4 μg/ml (1/4 MIC); for FEPI MIC (alone): no azole, 35° C., CM Broth
Method: The combinations were tested against a series of Candida strain with known expression of efflux pumps or with complete deletion of all known pumps and Aspergillus fumigatus. Results are reported as minimum inhibitory concentration (MIC) of […] in the presence or absence of […]. A total of 27 distinct milbemycins were studied.

YEM 51 C. glabrata wt = assay: FEPI MIC with/without 1/8 fluconazole MIC at 24 hrs (Table 11); conditions: YEM 51, 24 hrs, 80% inhibition; for MIC of compound in the presence of fluconazole (+): 1/8 × MIC of fluconazole
[5] = system: YEM 27 C. albicans ΔCDR1ΔCDR2 ΔBENΔFLU1; assay: microbe, parasite or virus in culture; conditions: YEM 27, 24 hrs, 80% inhibition; for MIC of compound in the presence of fluconazole (+): 1/8 × MIC of fluconazole
YEM 30 C. albicans wt = assay: FEPI MIC with/without 1/8 fluconazole MIC at 24 hrs (Table 11); conditions: YEM 30, 24 hrs, 80% inhibition; for MIC of compound in the presence of fluconazole (+): 1/8 × MIC of fluconazole
YEM 53 C. krusei = assay: as above; conditions: YEM 53, 24 hrs, 80% inhibition; for MIC of compound in the presence of fluconazole (+): 1/8 × MIC of fluconazole

Row | Molecule | MIC of compound in the presence of fluconazole (+) [1] | MIC of compound in the absence of fluconazole (−) [1] | MIC of compound in the presence of fluconazole (+) [2] | MIC of compound in the absence of fluconazole (−) [2] | MIC of compound in the presence of fluconazole (+) [3] | MIC of compound in the absence of fluconazole (−) [3] | MIC of compound in the presence of fluconazole (+) [4] | MIC of compound in the absence of fluconazole (−) [4] | FEPI MIC with fluconazole, 60% Inh (Aspergillus fumigatus) | FEPI MIC with fluconazole, 80% Inh (Aspergillus fumigatus) | FEPI MIC with itraconazole, 60% Inh (Aspergillus fumigatus) | FEPI MIC with itraconazole, 80% Inh (Aspergillus fumigatus) | FEPI MIC with ketoconazole, 60% Inh (Aspergillus fumigatus) | FEPI MIC with ketoconazole, 80% Inh (Aspergillus fumigatus) | FEPI MIC (alone) (Aspergillus fumigatus) | MIC of compound in the presence of fluconazole (+) (YEM 51 C. glabrata wt) | MIC of compound in the absence of fluconazole (−) (YEM 51 C. glabrata wt) | MIC of compound in the presence of fluconazole (+) [5] | MIC of compound in the absence of fluconazole (−) [5] | MIC of compound in the presence of fluconazole (+) (YEM 30 C. albicans wt) | further results
1 | CCCCC(C)C(=O)OC1C(C)C(CC)OC2(CC3CC(CC=C(C)CC(C)C=CC=C4COC5C(O)C(C)=CC(C(=O)O3)C45O)O2)C1O (stereo not drawn) [Compound 10, Milbemycin α7] | ≦0.03 | > 64 µg/mL | > 64 µg/mL | > 64 µg/mL | > 64 µg/mL | > 64 µg/mL | 1 µg/mL | > 64 µg/mL | 0.25 | 4 | 1 | 8 | 0.25 | 0.25 | >64 | 2 µg/mL | > 64 µg/mL | > 64 µg/mL | > 64 µg/mL | ≦0.03 | MIC of compound in the absence of fluconazole (−) (YEM 30 C. albicans wt): > 64 µg/mL; MIC of compound in the presence of fluconazole (+) (YEM 53 C. krusei): > 64 µg/mL; MIC of compound in the absence of fluconazole (−) (YEM 53 C. krusei): > 64 µg/mL
2 | 8-Methyl-5,6-dihydroxymilbemycin β1 [Compound 19] | ≦0.03 | > 64 µg/mL | 32 µg/mL | > 64 µg/mL | 16 µg/mL | > 64 µg/mL | 64 µg/mL | > 64 µg/mL | 32 | 64 | 8 | >64 | ≦0.063 | ≦0.063 | 64 | > 64 µg/mL | > 64 µg/mL | 16 µg/mL | > 64 µg/mL | ≦0.03 | MIC of compound in the absence of fluconazole (−) (YEM 30 C. albicans wt): 8 µg/mL; MIC of compound in the presence of fluconazole (+) (YEM 53 C. krusei): 8 µg/mL; MIC of compound in the absence of fluconazole (−) (YEM 53 C. krusei): > 64 µg/mL
3 | 8-Methyl-8-deoxymilbemycin β1 [Compound 24] | ≦0.03 | > 64 µg/mL | > 64 µg/mL | > 64 µg/mL | 64 µg/mL | > 64 µg/mL | 1 µg/mL | > 64 µg/mL | 64 | 64 | 64 | 64 | ≦0.063 | ≦0.063 | 64 | 0.125 µg/mL | > 64 µg/mL | 64 µg/mL | > 64 µg/mL | ≦0.03 | MIC of compound in the absence of fluconazole (−) (YEM 30 C. albicans wt): > 64 µg/mL; MIC of compound in the presence of fluconazole (+) (YEM 53 C. krusei): > 64 µg/mL; MIC of compound in the absence of fluconazole (−) (YEM 53 C. krusei): > 64 µg/mL
